From ChEMBL document CHEMBL1201862, “PubChem BioAssay data set” (2004)
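These data come from cells grown in 96-well plates and exposed to compound for 48 hours at five concentrations. The concentration for 50% growth inhibition is given as GI50.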 Calls of active or inactive are those of the source. Cut-off read from the data, not from the text of the source: active = GI50 up to about 1.1 µM and inactive = higher. Where a SMILES comes first, the peptide text is derived from it. [ ]: non-standard residue; d: D form. pGlu = O=C1CC[CH](C(=O)O)N1

How the values were obtained:
Experiment in all cases: DTP human tumour cell line panel, 48 h
[1] = tested on: A549
[2] = tested on: NCI/ADR-RES
[3] = tested on: SW-620
[4] = tested on: HCT-15
[5] = tested on: UO-31
[6] = tested on: SNB-19
[7] = tested on: HL-60
[8] = tested on: SN12C
[9] = tested on: ACHN
[10] = tested on: OVCAR-8
[11] = tested on: LOX IMVI
[12] = tested on: SK-MEL-28
[13] = tested on: U-251
[14] = tested on: CCRF-CEM
[15] = tested on: A498
[16] = tested on: MDA-MB-435
[17] = tested on: IGROV-1
[18] = tested on: SK-MEL-2
[19] = tested on: UACC-257

Cc1ccc(-c2cc(-c3ccco3)c(C#N)c(=S)[nH]2)cc1
GI50 [1]: 43.9 µM (inactive)
GI50 [2]: > 100 µM (inactive)
GI50 [3]: 53.3 µM (inactive)
GI50 [4]: 42 µM
GI50 [5]: 33.9 µM (inactive)
GI50 [6]: 32.1 µM (inactive)
GI50 [7]: 57 µM (inactive)
GI50 [8]: 87.9 µM (inactive)
GI50 [9]: 35.6 µM (inactive)
GI50 [10]: 68.1 µM (inactive)
GI50 [11]: 34.8 µM (inactive)
GI50 [12]: 20.8 µM (inactive)
GI50 [13]: 21.4 µM (inactive)
GI50 [14]: 38.3 µM (inactive)
GI50 [15]: 36.3 µM (inactive)
GI50 [16]: 23.9 µM (inactive)
GI50 [17]: 25.7 µM (inactive)

CC(NS(C)(=O)=O)c1ccccc1 (stereo not given)
GI50 [1]: > 100 µM (inactive)
GI50 [2]: > 100 µM (inactive)
GI50 [3]: > 100 µM (inactive)
GI50 [4]: > 100 µM
GI50 [5]: > 100 µM (inactive)
GI50 [6]: > 100 µM (inactive)
GI50 [7]: > 100 µM (inactive)
GI50 [18]: > 100 µM (inactive)
GI50 [8]: > 100 µM (inactive)
GI50 [10]: > 100 µM (inactive)
GI50 [11]: > 100 µM (inactive)
GI50 [12]: > 100 µM (inactive)
GI50 [13]: > 100 µM (inactive)
GI50 [19]: > 100 µM (inactive)
GI50 [14]: > 100 µM (inactive)
GI50 [16]: > 100 µM (inactive)
GI50 [17]: > 100 µM (inactive)

CN1CCN(/C(N)=C(\C#N)C(=O)Nc2ccccc2)CC1
GI50 [1]: > 100 µM (inactive)
GI50 [2]: > 100 µM (inactive)
GI50 [3]: > 100 µM (inactive)
GI50 [4]: > 100 µM
GI50 [5]: > 100 µM (inactive)
GI50 [6]: > 100 µM (inactive)
GI50 [18]: > 100 µM (inactive)
GI50 [8]: > 100 µM (inactive)
GI50 [9]: > 100 µM (inactive)
GI50 [10]: > 100 µM (inactive)
GI50 [11]: > 100 µM (inactive)
GI50 [12]: > 100 µM (inactive)
GI50 [13]: > 100 µM (inactive)
GI50 [19]: > 100 µM (inactive)
GI50 [14]: > 100 µM (inactive)
GI50 [15]: > 100 µM (inactive)
GI50 [16]: > 100 µM (inactive)
GI50 [17]: > 100 µM (inactive)

COc1ccc2[nH]cc(CCNC(=O)[C@H](Cc3ccc(O)cc3)NC(=O)[C@@H](NCC(F)(F)F)C(C)C)c2c1
GI50 [1]: 45.7 µM (inactive)
GI50 [2]: > 100 µM (inactive)
GI50 [3]: > 100 µM (inactive)
GI50 [4]: > 100 µM
GI50 [5]: > 100 µM (inactive)
GI50 [6]: > 100 µM (inactive)
GI50 [7]: 41.3 µM (inactive)
GI50 [18]: 58.2 µM (inactive)
GI50 [8]: > 100 µM (inactive)
GI50 [9]: > 100 µM (inactive)
GI50 [10]: 76 µM (inactive)
GI50 [11]: 25.2 µM (inactive)
GI50 [12]: 65.5 µM (inactive)
GI50 [13]: 74.1 µM (inactive)
GI50 [19]: 62.5 µM (inactive)
GI50 [14]: 39.7 µM (inactive)
GI50 [16]: 25.2 µM (inactive)
GI50 [17]: 97.7 µM (inactive)

CC(NC(=O)C1CCC(=O)N1)C(=O)N1CCCC1C(N)=O (stereo not drawn) ([pGlu]-Ala-Pro-NH2; configuration not given here)
GI50 [1]: > 100 µM (inactive)
GI50 [2]: > 100 µM (inactive)
GI50 [3]: > 100 µM (inactive)
GI50 [4]: > 100 µM
GI50 [5]: > 100 µM (inactive)
GI50 [6]: > 100 µM (inactive)
GI50 [7]: > 100 µM (inactive)
GI50 [8]: > 100 µM (inactive)
GI50 [9]: > 100 µM (inactive)
GI50 [10]: > 100 µM (inactive)
GI50 [11]: > 100 µM (inactive)
GI50 [12]: > 100 µM (inactive)
GI50 [13]: > 100 µM (inactive)
GI50 [14]: > 100 µM (inactive)
GI50 [15]: 31.5 µM (inactive)
GI50 [16]: > 100 µM (inactive)
GI50 [17]: > 100 µM (inactive)

CC(=O)O[C@H]1C(=O)[C@]2(C)[C@@H](OC(=O)OCC(O)CO)C[C@H]3OC[C@@]3(OC(C)=O)[C@H]2[C@H](OC(=O)c2ccccc2)[C@]2(O)C[C@H](OC(=O)[C@H](O)[C@@H](NC(=O)c3ccccc3)c3ccccc3)C(C)=C1C2(C)C (stereo not given in full) [PACLITAXEL CERIBATE]
GI50 [1]: < 0.01 µM (active)
GI50 [2]: 1.1 µM (active)
GI50 [3]: < 0.01 µM (active)
GI50 [4]: 0.143 µM
GI50 [5]: 0.601 µM (active)
GI50 [6]: < 0.01 µM (active)
GI50 [7]: < 0.01 µM (active)
GI50 [18]: < 0.01 µM (active)
GI50 [8]: < 0.01 µM (active)
GI50 [9]: 11.1 µM (inactive)
GI50 [10]: < 0.01 µM (active)
GI50 [11]: < 0.01 µM (active)
GI50 [12]: 14.5 µM (inactive)
GI50 [13]: < 0.01 µM (active)
GI50 [19]: < 0.01 µM (active)
GI50 [14]: < 0.01 µM (active)
GI50 [16]: < 0.01 µM (active)
GI50 [17]: < 0.01 µM (active)
